For one test, the species on record is Homo sapiens. Put plainly: Inhibition of ADP-induced aggregation of human blood platelets in the presence of fibrinogen. Format: functional.
Test [1] has as its target Integrin alpha-IIb/beta-3 (Homo sapiens, UniProt P05106+P08514). Put plainly: Inhibition of fibrinogen binding to purified immobilized alpha IIb beta-3 integrin isolated from membranes of human blood platelets.

Peptide text beside a SMILES is read from it. * marks the point of attachment. Cbz = O=C(OCc1ccccc1)*

Broadly, the IC50 is the concentration that gives 50% inhibition.

Integrin alpha-IIb/beta-3, sequence (P05106 27-788 limits assumed): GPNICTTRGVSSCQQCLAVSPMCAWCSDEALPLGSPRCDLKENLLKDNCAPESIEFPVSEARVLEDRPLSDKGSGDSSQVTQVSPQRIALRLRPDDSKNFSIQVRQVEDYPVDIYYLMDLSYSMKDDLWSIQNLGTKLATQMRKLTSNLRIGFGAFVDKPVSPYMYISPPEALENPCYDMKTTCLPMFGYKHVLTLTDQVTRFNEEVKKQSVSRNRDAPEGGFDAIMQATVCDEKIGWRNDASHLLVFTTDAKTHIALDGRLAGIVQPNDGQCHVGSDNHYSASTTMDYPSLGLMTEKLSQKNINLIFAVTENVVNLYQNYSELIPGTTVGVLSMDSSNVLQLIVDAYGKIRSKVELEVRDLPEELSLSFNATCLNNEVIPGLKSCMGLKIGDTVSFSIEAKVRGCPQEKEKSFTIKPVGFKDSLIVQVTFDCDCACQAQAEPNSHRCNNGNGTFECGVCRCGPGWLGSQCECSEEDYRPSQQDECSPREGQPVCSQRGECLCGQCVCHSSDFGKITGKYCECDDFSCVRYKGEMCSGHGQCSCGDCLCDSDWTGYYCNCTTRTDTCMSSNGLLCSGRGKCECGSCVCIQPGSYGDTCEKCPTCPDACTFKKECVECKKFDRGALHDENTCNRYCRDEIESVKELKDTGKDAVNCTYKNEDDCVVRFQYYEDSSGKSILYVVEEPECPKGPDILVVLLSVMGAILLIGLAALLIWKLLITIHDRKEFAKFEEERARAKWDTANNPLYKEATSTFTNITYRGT
Integrin alpha-IIb/beta-3, sequence (P08514 32-887 limits assumed): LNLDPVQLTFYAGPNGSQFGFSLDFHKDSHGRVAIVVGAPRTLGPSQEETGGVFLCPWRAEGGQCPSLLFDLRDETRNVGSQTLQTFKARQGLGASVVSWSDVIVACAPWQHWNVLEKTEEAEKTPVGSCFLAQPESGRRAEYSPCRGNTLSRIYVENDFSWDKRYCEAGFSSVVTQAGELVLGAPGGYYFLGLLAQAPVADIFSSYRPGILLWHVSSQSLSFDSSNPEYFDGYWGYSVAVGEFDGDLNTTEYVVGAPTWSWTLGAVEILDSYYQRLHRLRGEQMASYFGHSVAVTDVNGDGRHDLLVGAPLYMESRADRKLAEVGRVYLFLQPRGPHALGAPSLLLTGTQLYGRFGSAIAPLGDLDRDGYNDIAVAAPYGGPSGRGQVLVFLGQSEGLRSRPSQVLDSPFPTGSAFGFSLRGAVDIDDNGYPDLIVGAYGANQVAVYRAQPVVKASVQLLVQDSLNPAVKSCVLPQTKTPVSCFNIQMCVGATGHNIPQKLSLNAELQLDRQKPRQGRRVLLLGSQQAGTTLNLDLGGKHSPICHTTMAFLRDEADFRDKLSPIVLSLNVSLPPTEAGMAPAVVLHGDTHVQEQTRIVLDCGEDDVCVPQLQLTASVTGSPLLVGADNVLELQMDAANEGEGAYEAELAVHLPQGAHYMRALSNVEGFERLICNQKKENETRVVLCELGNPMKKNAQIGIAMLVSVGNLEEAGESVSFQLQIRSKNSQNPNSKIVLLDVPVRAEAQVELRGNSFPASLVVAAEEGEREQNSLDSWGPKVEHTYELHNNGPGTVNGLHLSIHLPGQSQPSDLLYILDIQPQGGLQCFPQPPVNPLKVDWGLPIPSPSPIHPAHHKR
Integrin alpha-IIb/beta-3, sequence (P08514 891-1039 limits assumed): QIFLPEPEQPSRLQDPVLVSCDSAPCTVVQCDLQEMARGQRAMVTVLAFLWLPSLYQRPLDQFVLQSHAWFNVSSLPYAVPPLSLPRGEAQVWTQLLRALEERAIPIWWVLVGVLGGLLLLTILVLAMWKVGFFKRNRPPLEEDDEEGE

Turning to `COC(=O)[C@H](CC12CC3CC(CC(C3)C1)C2)NC(=O)[C@H](CC(=O)O)N1CC[C@H](NC(=O)Cc2ccc(C(=N)N)cc2)C1=O`, the IC50 in the test filed under Homo sapiens was 360 nM; in test [1], 20 nM.

`CC(C)[C@H](NC(=O)[C@@H](CC(=O)O)N1CC[C@H](NC(=O)Cc2ccc(C(=N)N)cc2)C1=O)C(=O)O`: the half-inhibitory concentration (IC50) (in the test filed under Homo sapiens; in test [1]) was above 100000 nM in each case.

For the molecule `COC(=O)[C@H](Cn1ccc2ccccc21)NC(=O)[C@H](CC(=O)O)N1CC[C@H](NC(=O)Cc2ccc(C(=N)N)cc2)C1=O`, the half-inhibitory concentration (IC50) in the test listed under Homo sapiens turned out to be 4400 nM; in test [1], 120 nM.

With `CC(C)[C@H](NC(=O)[C@H](CC(=O)O)NC(=O)CNC(=O)[C@H](CCCN=C(N)N)NC(=O)OCc1ccccc1)C(=O)O` (Cbz-RGDV-OH), the values for the IC50 (in the test listed under Homo sapiens; in test [1]) were 3100 nM and 110 nM, respectively.

With `COC(=O)[C@H](Cn1ccc2ccccc21)NC(=O)[C@H](CC(=O)O)N1CC[C@H](NC(=O)[C@H](CCCN=C(N)N)NC(=O)OCc2ccccc2)C1=O`, the IC50 in the test filed under Homo sapiens was determined as 25100 nM; in test [1] it was 1220 nM.

Turning to `COC(=O)[C@H](CC12CC3CC(CC(C3)C1)C2)NC(=O)[C@H](CC(=O)O)N1CC[C@H](NC(=O)[C@H](CCCN=C(N)N)NC(=O)OCc2ccccc2)C1=O`, the half-maximal inhibitory concentration (IC50) was found to be 4000 nM in the test listed under Homo sapiens and 510 nM in test [1].

As to `CC(C)C[C@H](NC(=O)[C@H](CC(=O)O)N1CC[C@H](NC(=O)Cc2ccc(C(=N)N)cc2)C1=O)C(=O)O`, the results for the half-inhibitory concentration (IC50) (in the test listed under Homo sapiens; in test [1]) were 360 nM and 40 nM, respectively.

On to `CC(C)C[C@H](NC(=O)[C@H](CC(=O)O)N1CC[C@H](NC(=O)[C@H](CCCN=C(N)N)NC(=O)OCc2ccccc2)C1=O)C(=O)O`, for which the half-maximal inhibitory concentration (IC50) came out at 12800 nM in the test listed under Homo sapiens and 560 nM in test [1].

As to `N=C(N)NCCC[C@H](NC(=O)OCc1ccccc1)C(=O)N[C@@H]1CCN([C@@H](CC(=O)O)C(=O)N[C@@H](Cc2ccccc2)C(=O)O)C1=O`, the IC50 (in the test filed under Homo sapiens; in test [1]) was above 100000 nM each time.

`COC(=O)[C@H](Cc1ccccc1)NC(=O)[C@H](CC(=O)O)NC(=O)[C@@H](C)NC(=O)[C@H](CCCN=C(N)N)NC(=O)OCc1ccccc1`: the 50% inhibitory concentration (IC50) (in the test filed under Homo sapiens; in test [1]) was above 100000 nM each time.

As to `COC(=O)[C@H](Cc1ccccc1)NC(=O)[C@H](CC(=O)O)NC(=O)CNC(=O)[C@H](CCCN=C(N)N)NC(=O)OCc1ccccc1` (Cbz-RGDF-OMe), the IC50 in the test listed under Homo sapiens was 13000 nM; in test [1] it was 270 nM.

On to `N=C(N)c1ccc(CC(=O)N[C@H]2CCN([C@@H](CC(=O)O)C(=O)N[C@@H](CC34CC5CC(CC(C5)C3)C4)C(=O)O)C2=O)cc1`, for which the IC50 in the test listed under Homo sapiens stood at 100 nM; in test [1], 5 nM.

Consider `N=C(N)NCCC[C@H](NC(=O)OCc1ccccc1)C(=O)N[C@H]1CCN([C@@H](CC(=O)O)C(=O)N[C@@H](Cn2ccc3ccccc32)C(=O)O)C1=O`, for which the 50% inhibitory concentration (IC50) turned out to be 10000 nM in the test filed under Homo sapiens and 1070 nM in test [1].

As to `N=C(N)c1ccc(CC(=O)N[C@H]2CCN([C@@H](CC(=O)O)C(=O)N[C@@H](Cn3ccc4ccccc43)C(=O)O)C2=O)cc1`, the IC50 in the test listed under Homo sapiens stood at 740 nM; in test [1], 20 nM.

On to `COC(=O)[C@H](Cc1ccccc1)NC(=O)[C@H](CC(=O)O)NC(=O)[C@H](C)NC(=O)[C@H](CCCNC(=N)N)NC(=O)OCc1ccccc1`, for which the results for the half-maximal inhibitory concentration (IC50) (in the test filed under Homo sapiens; in test [1]) were above 100000 nM and 78000 nM, respectively.

Turning to `N=C(N)c1ccc(CC(=O)N[C@H]2CCN([C@@H](CC(=O)O)C(=O)N[C@H](C(=O)O)C34CC5CC(CC(C5)C3)C4)C2=O)cc1`, the IC50 in the test listed under Homo sapiens is 40 nM; in test [1], 2 nM.

For the molecule `COC(=O)[C@H](Cc1ccccc1)NC(=O)[C@H](CC(=O)O)N1CC[C@H](NC(=O)[C@H](CCCN=C(N)N)NC(=O)OCc2ccccc2)C1=O`, the values for the IC50 (in the test filed under Homo sapiens; in test [1]) were 85100 nM and 770 nM, respectively.
